In US12187684B2, “Benzimidazole derivatives as modulators of retinoid-related orphan receptor gamma (RORγ) and pharmaceutical use thereof” (Jiangsu Hengrui Medicine Co., Ltd., priority 2018, dated 2025):

Each compound was assayed against T1, RORγ LBD-GST tagged (Homo sapiens, UniProt P51449) (assay: LanthaScreen TR-FRET RORγ coactivator assay). Conditions: Fluorescein-D22 coactivator peptide, 1 hour room temperature.
T1 construct: RORγ LBD-GST tagged (Cat No. RORC-114H, Creative Biomart); purchased Creative Biomart RORC-114H
T1 sequence (P51449 269-508 limits assumed): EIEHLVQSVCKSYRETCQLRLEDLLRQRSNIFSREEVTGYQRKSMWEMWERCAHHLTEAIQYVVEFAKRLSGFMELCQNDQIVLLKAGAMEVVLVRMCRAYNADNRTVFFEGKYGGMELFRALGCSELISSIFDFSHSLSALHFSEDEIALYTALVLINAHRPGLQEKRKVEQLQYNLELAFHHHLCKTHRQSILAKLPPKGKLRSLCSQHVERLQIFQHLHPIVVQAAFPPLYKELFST
Type: biochemical
From the text: LanthaScreen TR-FRET Retinoid-Related Orphan Receptor Gamma (RORγ) Coactivator Assay Materials and Reagents • 1. […] Fluorescein-D22 coactivator peptide (Cat No. PV4386, Invitrogen) • 3. LanthaScreen™ Tb anti-GST antibody (Cat No. PV3550, Invitrogen) • 4. TR-FRET coregulatory buffer D (Cat No, PV4420, Invitrogen) • 5. DTT (Cat No. P2325, Fisher) • 6. […] Tecan Infinite M1000 plate reader (Tecan) Experimental Procedure Prepare Complete TR-FRET Coregulator Buffer D by adding 1 M DTT to TR-FRET Coregulator Buffer D to the final concentration of 5 mM DTT. Make compound dilution in Complete TR-FRET Coregulator Buffer D. Highest dose is 3 μM, 7-folder dilution for total 7 doses. Add 10 μL to each well of a 384-well plate. For the negative and positive controls, add 10 μL of Complete TR-FRET Coregulator Buffer D. Prepare RORγ LBD using Complete TR-FRET Coregulator Buffer D. The final concentration of RORγ LBD is 25 ng/reaction. Add 5 μL RORγ LBD to all the wells of the 384-well assay plate except negative wells which adding 5 μL Complete TR-FRET Coregulator Buffer D. Prepare a solution containing 0.6 μM Fluorescein-D22 and 8 nM Tb anti-GST antibody using Complete TR-FRET Coregulator Buffer D. Add 5 μL to all wells of the 384-well assay plate. Briefly and gently mix the 384-well plate on a plate shaker and incubate at room temperature protected from light for 1 hour. The plate may be sealed with a cover to minimize evaporation. Read the plate at wavelengths of 520 nm and 495 nm on Tecan Infinite M1000. IC50 values were calculated using GraphPad Prism by plotting the logarithm of compounds concentration versus percent inhibition.

Compound	IC50
CS(=O)(=O)c1ccc(C(CO)c2nc3c(Cl)c(-c4ccccc4OC(F)F)c(Cl)cc3[nH]2)cc1 (stereo not shown) [Example 48, 2-(4,6-dichloro-5-(2-(difluoromethoxy)phenyl)-1H-benzo[d]imidazol-2-yl)-2-(4-(methylsulfonyl)phenyl)ethanol]	0.445 µM
CCS(=O)(=O)c1ccc(C(CO)c2nc3c(F)c(-c4ccccc4F)c(F)cc3[nH]2)cc1 (stereo not shown) [Example 112, 2-(4,6-difluoro-5-(2-fluorophenyl)-1H-benzo[d]imidazol-2-yl)-2-(4-(ethylsulfonyl)phenyl)ethanol]	0.076 µM
O=S(=O)(CC1CC1)c1ccc(C(O)c2nc3c(Cl)c(-c4ccccc4C(F)(F)F)c(Cl)cc3[nH]2)cc1 (stereo not shown) [Example 71, (4-((cyclopropylmethyl)sulfonyl)phenyl)(4,6-dichloro-5-(2-(trifluoromethyl)phenyl)-1H-benzo[d]imidazol-2-yl)methanol]	0.004 µM
CCS(=O)(=O)c1ccc(C(O)c2nc3c(Cl)c(-c4ccccc4)c(Cl)cc3[nH]2)cc1 (stereo not shown) [Example 2, (4,6-dichloro-5-phenyl-1H-benzo[d]imidazol-2-yl)(4-(ethylsulfonyl)phenyl)methanol]	0.467 µM
CS(=O)(=O)c1ccc(C(O)c2nc3c(Cl)c(-c4ccccc4OC(F)F)c(Cl)cc3[nH]2)cc1 (stereo not shown) [Example 49, (4,6-dichloro-5-(2-(difluoromethoxy)phenyl)-1H-benzo[d]imidazol-2-yl)(4-(methylsulfonyl)phenyl)methanol]	0.255 µM
O=S(=O)(CC1CC1)c1ccc(C(O)c2nc3c(Cl)c(-c4ccccc4F)c(Cl)cc3[nH]2)cc1 (stereo not shown) [Example 75, (4-((cyclopropylmethyl)sulfonyl)phenyl)(4,6-dichloro-5-(2-fluorophenyl)-1H-benzo[d]imidazol-2-yl)methanol]	0.006 µM
CCS(=O)(=O)c1ccc(C(O)c2nc3c(F)c(-c4ccccc4OC)c(F)cc3[nH]2)cc1 (stereo not shown) [Example 113, (4,6-difluoro-5-(2-methoxyphenyl)-1H-benzo[d]imidazol-2-yl)(4-(ethylsulfonyl)phenyl)methanol]	0.18 µM
CCS(=O)(=O)c1ccc(C(O)c2nc3c(Cl)c(-c4ccccc4F)c(Cl)cc3[nH]2)cc1 (stereo not shown) [Example 12, (4,6-dichloro-5-(2-fluorophenyl)-1H-benzo[d]imidazol-2-yl)(4-(ethylsulfonyl)phenyl)methanol]	0.106 µM
COCCS(=O)(=O)c1ccc(Cc2nc3c(Cl)c(-c4ccccc4OC(F)(F)F)c(Cl)cc3[nH]2)cc1 [Example 53, 4,6-dichloro-2-(4-((2-methoxyethyl)sulfonyl)benzyl)-5-(2-(trifluoromethoxy)phenyl)-1H-benzo[d]imidazole]	0.575 µM
CCS(=O)(=O)c1ccc(C(CO)c2nc3c(C)c(-c4ccccc4C(F)(F)F)c(C)cc3[nH]2)cc1 (stereo not shown) [Example 116, 2-(4,6-dimethyl-5-(2-(trifluoromethyl)phenyl)-1H-benzo[d]imidazol-2-yl)-2-(4-(ethylsulfonyl)phenyl)ethanol]	0.235 µM
CC(C)S(=O)(=O)c1ccc(C(O)c2nc3c(Cl)c(-c4ccccc4OC(F)(F)F)c(Cl)cc3[nH]2)cc1 (stereo not shown) [Example 106, (4-((iso-propyl)sulfonyl)phenyl)(4,6-dichloro-5-(2-(trifluoromethoxy)phenyl)-1H-benzo[d]imidazol-2-yl)methanol]	0.003 µM
CCS(=O)(=O)c1ccc(C(NC(C)=O)c2nc3c(Cl)c(-c4ccccc4OC(F)(F)F)c(Cl)cc3[nH]2)cc1 (stereo not shown) [Example 44, N-((4,6-dichloro-5-(2-(trifluoromethoxy)phenyl)-1H-benzo[d]imidazol-2-yl)(4-(ethylsulfonyl)phenyl)methyl)acetamide]	0.026 µM
NC(=O)CC(c1ccc(S(=O)(=O)CC2CC2)cc1)c1nc2cc(-c3ccccc3OC(F)F)c(Cl)cc2[nH]1 (single isomer, unassigned) [3-(6-chloro-5-(2-(difluoromethoxy)phenyl)-1H-benzo[d]imidazol-2-yl)-3-(4-((cyclopropylmethyl)sulfonyl)phenyl)propanamide]	0.21 µM
CCS(=O)(=O)c1ccc(C(CO)c2nc3c(Cl)c(-c4ccccc4F)c(Cl)cc3[nH]2)cc1 (stereo not shown) [Example 11, 2-(4,6-dichloro-5-(2-fluorophenyl)-1H-benzo[d]imidazol-2-yl)-2-(4-(ethylsulfonyl)phenyl)ethanol]	0.242 µM
CCS(=O)(=O)c1ccc(Cc2nc3c(Cl)c(-c4ccccc4OC(C)C)c(Cl)cc3[nH]2)cc1 [Example 8, 4,6-dichloro-2-(4-(ethylsulfonyl)benzyl)-5-(2-isopropoxyphenyl)-1H-benzo[d]imidazole]	0.903 µM
CS(=O)(=O)c1ccc(C(CO)c2nc3c(Cl)c(-c4ccccc4OC(F)(F)F)c(Cl)cc3[nH]2)cc1 (stereo not shown) [Example 57, 2-(4,6-dichloro-5-(2-(trifluoromethoxy)phenyl)-1H-benzo[d]imidazol-2-yl)-2-(4-(methylsulfonyl)phenyl)ethanol]	0.187 µM
CCS(=O)(=O)c1ccc(C(CO)c2nc3c(Cl)c(-c4ccccc4C(C)C)c(Cl)cc3[nH]2)cc1 (stereo not shown) [Example 37, 2-(4,6-dichloro-5-(2-isopropylphenyl)-1H-benzo[d]imidazol-2-yl)-2-(4-(ethylsulfonyl)phenyl)ethanol]	0.433 µM
COCCS(=O)(=O)c1ccc(C(O)c2nc3c(Cl)c(-c4ccccc4OC(F)(F)F)c(Cl)cc3[nH]2)cc1 (stereo not shown) [Example 55, (4,6-dichloro-5-(2-(trifluoromethoxy)phenyl)-1H-benzo[d]imidazol-2-yl)(4-((2-methoxyethyl)sulfonyl)phenyl)methanol]	0.194 µM
CCOc1ccccc1-c1c(Cl)cc2[nH]c(C(CO)c3ccc(S(=O)(=O)CC)cc3)nc2c1Cl (stereo not shown) [Example 17, 2-(4,6-dichloro-5-(2-ethoxyphenyl)-1H-benzo[d]imidazol-2-yl)-2-(4-(ethylsulfonyl)phenyl)ethanol]	0.097 µM
CCS(=O)(=O)c1ccc(Cc2nc3c(F)c(-c4ccccc4OC(F)(F)F)c(F)cc3[nH]2)cc1 [Example 108, 2-(4-(ethylsulfonyl)benzyl)-4,6-difluoro-5-(2-(trifluoromethoxy)phenyl)-1H-benzo[d]imidazole]	0.032 µM
CS(=O)(=O)c1ccc(C(CO)c2nc3c(Cl)c(-c4ccccc4OC(F)(F)F)c(Cl)cc3[nH]2)c(Cl)c1 (stereo not shown) [Example 102, 2-(2-chloro-4-(methylsulfonyl)phenyl)-2-(4,6-dichloro-5-(2-(trifluoromethoxy)phenyl)-1H-benzo[d]imidazol-2-yl)ethanol]	0.062 µM
CCS(=O)(=O)c1ccc(C(O)c2nc3c(Cl)c(-c4cc(Cl)ccc4Cl)c(Cl)cc3[nH]2)cc1 (stereo not shown) [Example 15, (4,6-dichloro-5-(2,5-dichlorophenyl)-1H-benzo[d]imidazol-2-yl)(4-(ethylsulfonyl)phenyl)methanol]	0.787 µM
O=S(=O)(CC1CC1)c1ccc(C(O)c2nc3c(Cl)c(-c4ccccc4OC(F)(F)F)c(Cl)cc3[nH]2)c(Cl)c1 (stereo not shown) [Example 92, (2-chloro-4-((cyclopropylmethyl)sulfonyl)phenyl)(4,6-dichloro-5-(2-(trifluoromethoxy)phenyl)-1H-benzo[d]imidazol-2-yl)methanol]	0.067 µM
CS(=O)(=O)c1ccc(Cc2nc3c(Cl)c(-c4ccccc4OC(F)(F)F)c(Cl)cc3[nH]2)cc1 [Example 56, 4,6-dichloro-2-(4-(methylsulfonyl)benzyl)-5-(2-(trifluoromethoxy)phenyl)-1H-benzo[d]imidazole]	0.879 µM
CCS(=O)(=O)c1ccc(C(CC(N)=O)c2nc3c(Cl)c(N4CCC(F)(F)CC4)c(Cl)cc3[nH]2)cc1 (single isomer, unassigned) [3-(4,6-dichloro-5-(4,4-difluoropiperidin-1-yl)-1H-benzo[d]imidazol-2-yl)-3-(4-(ethylsulfonyl)phenyl)propanamide]	0.057 µM
N#Cc1ccccc1-c1c(Cl)cc2[nH]c(Cc3ccc(S(=O)(=O)CC4CC4)cc3)nc2c1Cl [Example 95, 2-(4,6-dichloro-2-(4-((cyclopropylmethyl)sulfonyl)benzyl)-1H-benzo[d]imidazol-5-yl)benzonitrile]	0.065 µM
N#Cc1ccccc1-c1c(Cl)cc2[nH]c(C(CO)c3ccc(S(=O)(=O)CC4CC4)cc3)nc2c1Cl (stereo not shown) [Example 96, 2-(4,6-dichloro-2-(1-(4-((cyclopropylmethyl)sulfonyl)phenyl)-2-hydroxyethyl)-1H-benzo[d]imidazol-5-yl)benzonitrile]	0.123 µM
CCS(=O)(=O)c1ccc(C(O)c2nc3c(Cl)c(-c4ccccc4OC(F)F)c(Cl)cc3[nH]2)c(F)c1 (stereo not shown) [Example 85, (4,6-dichloro-5-(2-(difluoromethoxy)phenyl)-1H-benzo[d]imidazol-2-yl)(4-(ethylsulfonyl)-2-fluorophenyl)methanol]	0.188 µM
